Values quoted from earlier work, collected in US20060134226A1, “Compositions useful to treat ocular neovascular diseases and macular degeneration” (priority 2004, published 2006).
Values belong to the molecule of their own block, whether it stands above or below them.

What was measured:
[1] = in vivo
[2] = oral dose of 600 mg tid, long periods of time, patients with chronic bronchitis and emphysema
[3] = consumed daily
[4] = about 200 mg dosage of zinc per day
[5] = tested on: macular degeneration changes; conditions: 80 mg of zinc, versus placebo
[6] = in vivo; remark: listed apart in the source
[7] = not given; remark: listed apart in the source

Molecule: CC(=O)Oc1c(C)c(C)c2c(c1C)CC[C@@](C)(CCC[C@H](C)CCC[C@H](C)CCCC(C)C)O2 (racemic) [dl-alpha tocopheryl acetate]
level at which no adverse effects have been observed [1]: ≤ 800 mg

dose excreted in the urine (after 24 hours): approximately 22%
mean plasma half-life (humans): about 1.35 hours
absorption of radiolabelled NAC (humans, one hour after administration): rapidly absorbed
Molecule: CC(=O)N[C@@H](CS)C(=O)O [NAC, N-acetylcysteine]
tolerability [2]: well tolerated

Molecule: O=C1O[C@H]([C@@H](O)CO)C(O)=C1O [vitamin C, ascorbic acid]
daily intake without any known adverse effects [3]: ≥ 1,000 mg

Molecule: [Zn] [zinc]
side effects [4]: potential side effects such as anemia
retarding macular degeneration changes [5]: significantly better than placebo

Molecule: beta carotene [beta-carotene]
efficiency of conversion to vitamin A in the body [6]: approximately 50%
risk among male smokers ([7]; 20 mg/day of beta-carotene): increased risk of lung cancer
risk in men with previous myocardial infarction ([7]; 20 mg/day of beta-carotene): increased risk of fatal coronary heart attacks
dosage level with no observed adverse effects ([7]; healthy, non-smokers): ≤ 25 mg per day
